Laboratory results from patent publication US12084436B2, “Heterocyclic compound” (Takeda Pharmaceutical Company Limited, priority 2019, dated 2024).

Each compound was assayed against T1, HDAC6 enzyme (Homo sapiens, UniProt Q9UBN7) (assay: HDAC6 enzyme inhibitory assay (HDAC-Glo I/II Assay kit, luminescence)). Settings: 10 μM test compound; wells without enzyme = 100% inhibition; read-out: HDAC6 inhibitory rate (%) (10 μM).
T1 construct: prepared by transducing full length HDAC6 gene into Sf-9 insect cells; GST; purchased SignalChem; host or cells: Sf-9 insect cells
T1 sequence (Q9UBN7 1-1215): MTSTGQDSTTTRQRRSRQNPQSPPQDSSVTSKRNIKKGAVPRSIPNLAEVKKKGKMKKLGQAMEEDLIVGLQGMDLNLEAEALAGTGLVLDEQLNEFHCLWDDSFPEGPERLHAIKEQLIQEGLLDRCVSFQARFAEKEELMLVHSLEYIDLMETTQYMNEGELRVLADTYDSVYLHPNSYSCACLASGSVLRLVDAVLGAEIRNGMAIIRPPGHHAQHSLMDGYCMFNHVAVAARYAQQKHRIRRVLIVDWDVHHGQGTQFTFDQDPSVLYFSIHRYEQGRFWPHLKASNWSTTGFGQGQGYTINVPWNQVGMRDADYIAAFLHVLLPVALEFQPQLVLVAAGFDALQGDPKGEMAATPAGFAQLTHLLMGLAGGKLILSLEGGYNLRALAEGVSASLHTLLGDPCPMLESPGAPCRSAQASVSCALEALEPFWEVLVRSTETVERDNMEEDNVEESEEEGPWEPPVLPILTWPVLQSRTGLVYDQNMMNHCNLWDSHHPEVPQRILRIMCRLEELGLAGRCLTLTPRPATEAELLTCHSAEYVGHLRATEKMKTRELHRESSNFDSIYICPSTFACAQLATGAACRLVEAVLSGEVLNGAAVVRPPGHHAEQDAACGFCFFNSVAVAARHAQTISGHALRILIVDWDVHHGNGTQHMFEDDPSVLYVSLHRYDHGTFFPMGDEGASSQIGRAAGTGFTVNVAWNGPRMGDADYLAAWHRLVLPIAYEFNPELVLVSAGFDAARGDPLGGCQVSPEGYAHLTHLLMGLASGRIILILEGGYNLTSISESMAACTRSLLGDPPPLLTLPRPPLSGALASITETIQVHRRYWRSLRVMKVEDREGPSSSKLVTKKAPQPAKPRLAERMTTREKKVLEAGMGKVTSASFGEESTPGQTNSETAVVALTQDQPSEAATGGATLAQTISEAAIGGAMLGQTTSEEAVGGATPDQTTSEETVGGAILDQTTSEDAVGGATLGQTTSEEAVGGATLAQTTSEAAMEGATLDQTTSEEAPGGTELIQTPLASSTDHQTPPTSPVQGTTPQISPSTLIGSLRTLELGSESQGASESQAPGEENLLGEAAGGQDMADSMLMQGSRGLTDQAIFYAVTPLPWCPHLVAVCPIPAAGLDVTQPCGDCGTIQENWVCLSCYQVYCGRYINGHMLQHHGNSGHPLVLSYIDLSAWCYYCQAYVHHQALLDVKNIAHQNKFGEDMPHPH
Format: biochemical
Method in brief: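 Full-length human HDAC6, GST-purified from Sf-9 cells, was preincubated with compound for 60 min at room temperature in Tris-HCl pH 7.5 buffer with glutathione and Tween-20. Substrate-developer was then added, and luminescence was read after 20 min at room temperature. Inhibition was expressed relative to no-enzyme wells, taken as 100% inhibition.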

Inhibition at 10 µM, 92%:
O=C1CCCN1CCOc1cccnc1-c1cc(F)cc(-c2nnc(C(F)F)o2)c1 [Example 15a, 1-{2-[(2-{3-[5-(difluoromethyl)-1,3,4-oxadiazol-2-yl]-5-fluorophenyl}pyridin-3-yl)oxy]ethyl}pyrrolidin-2-one]

Inhibition at 10 µM, 98%:
FC(F)c1nnc(-c2cccc(-c3nccn3Cc3ccccc3)c2)o1 [Example 70a, 2-[3-(1-benzyl-1H-imidazol-2-yl)phenyl]-5-(difluoromethyl)-1,3,4-oxadiazole]
CN1C(=O)c2cc(-c3nnc(C(F)F)o3)ccc2OC1(C)c1ccccc1Cl (stereo not drawn) [Example 16b, 2-(2-chlorophenyl)-6-[5-(difluoromethyl)-1,3,4-oxadiazol-2-yl]-2,3-dimethyl-2,3-dihydro-4H-1,3-benzoxazin-4-one]
N#Cc1ccc(Cn2ccnc2-c2cc(F)cc(-c3nnc(C(F)F)o3)c2)cn1 [Example 66a, 5-[(2-{3-[5-(difluoromethyl)-1,3,4-oxadiazol-2-yl]-5-fluorophenyl]-1H-imidazol-1-yl)methyl]pyridine-2-carbonitrile]
CN1C(=O)c2cc(-c3nnc(C(F)F)o3)ccc2OC1(C)C1CCCCC1 (stereo not drawn) [Example 14b, 2-cyclohexyl-6-[5-(difluoromethyl)-1,3,4-oxadiazol-2-yl]-2,3-dimethyl-2,3-dihydro-4H-1,3-benzoxazin-4-one]
Fc1cc(-c2nnc(C(F)F)o2)cc(-c2nccn2Cc2cnccn2)c1 [Example 43a, 2-[(2-{3-[5-(difluoromethyl)-1,3,4-oxadiazol-2-yl]-5-fluorophenyl}-1H-imidazol-1-yl)methyl]pyrazine]

Inhibition at 10 µM, 101%:
O=C1NN(c2ccc(F)cc2)Cc2ncc(-c3nnc(C(F)F)o3)cc21 [Example 3b, 3-[5-(difluoromethyl)-1,3,4-oxadiazol-2-yl]-7-(4-fluorophenyl)-7,8-dihydropyrido[2,3-d]pyridazin-5(6H)-one]

Inhibition at 10 µM, 104%:
COc1ccc(Cn2ccnc2-c2cc(-c3nnc(C(F)F)o3)ccn2)cc1 [Example 80a, 4-[5-(difluoromethyl)-1,3,4-oxadiazol-2-yl]-2-{1-[(4-methoxyphenyl)methyl]-1H-imidazol-2-yl}pyridine]

Inhibition at 10 µM, 68%:
O=C1COCC(Cc2ccccn2)N1c1cc(F)cc(-c2nnc(C(F)F)o2)c1 (stereo not drawn) [Example 42a]

Inhibition at 10 µM, 99%:
FC(F)c1nnc(-c2ccnc(-n3ncc4c3C(c3ccccc3)CCC4)c2)o1 (stereo not drawn) [Example 77a]
FC(F)c1nnc(-c2ccnc(-c3nccn3Cc3ccccn3)c2)o1 [Example 3a, 4-[5-(difluoromethyl)-1,3,4-oxadiazol-2-yl]-2-{1-[(pyridin-2-yl)methyl]-1H-imidazol-2-yl}pyridine]
COc1ccc(C2(C)Oc3ccc(-c4nnc(C(F)F)o4)cc3C(=O)N2C)cc1 (stereo not drawn) [Example 18b, 6-[5-(difluoromethyl)-1,3,4-oxadiazol-2-yl]-2-(4-methoxyphenyl)-2,3-dimethyl-2,3-dihydro-4H-1,3-benzoxazin-4-one]
CC(C)(C)OC(=O)NN1Cc2ccc(-c3nnc(C(F)F)o3)cc2C1=O [Example 3c, tert-butyl {6-[5-(difluoromethyl)-1,3,4-oxadiazol-2-yl]-1-oxo-1,3-dihydro-2H-isoindol-2-yl}carbamate]
Fc1cc(-c2nnc(C(F)F)o2)cc(-n2nccc2OC2CCOCC2)c1 [Example 47a, 2-(difluoromethyl)-5-(3-fluoro-5-{5-[(oxan-4-yl)oxy]-1H-pyrazol-1-yl}phenyl)-1,3,4-oxadiazole]
Fc1cc(-c2nnc(C(F)F)o2)cc(-c2nccn2Cc2ccc(F)c(Cl)c2)c1 [Example 68a, 2-(3-{1-[(3-chloro-4-fluorophenyl)methyl]-1H-imidazol-2-yl]-5-fluorophenyl)-5-(difluoromethyl)-1,3,4-oxadiazole]
Fc1cc(-c2nnc(C(F)F)o2)cc(-c2ncccc2OCC2CCOC2)c1 (stereo not drawn) [Example 12a, 2-{3-[5-(difluoromethyl)-1,3,4-oxadiazol-2-yl]-5-fluorophenyl}-3-[(oxolan-3-yl)methoxy]pyridine]
Fc1cccc(Cc2ccnn2-c2cc(-c3nnc(C(F)F)o3)ccn2)c1 [Example 87a, 4-[5-(difluoromethyl)-1,3,4-oxadiazol-2-yl]-2-{5-[(3-fluorophenyl)methyl]-1H-pyrazol-1-yl}pyridine]
O=C1c2cc(-c3nnc(C(F)F)o3)ccc2CN1NCc1ccc(F)cn1 [Example 15c, 6-[5-(difluoromethyl)-1,3,4-oxadiazol-2-yl]-2-{[(5-fluoropyridin-2-yl)methyl]amino}-2,3-dihydro-1H-isoindol-1-one]
Fc1ccc(Cn2ccnc2-c2cc(F)cc(-c3nnc(C(F)F)o3)c2)cc1 [Example 46a, 2-(difluoromethyl)-5-(3-fluoro-5-{1-[(4-fluorophenyl)methyl]-1H-imidazol-2-yl}phenyl)-1,3,4-oxadiazole]
Fc1cccc(Cn2ccnc2-c2cc(F)cc(-c3nnc(C(F)F)o3)c2)c1 [Example 44a, 2-(difluoromethyl)-5-(3-fluoro-5-{1-[(3-fluorophenyl)methyl]-1H-imidazol-2-yl}phenyl)-1,3,4-oxadiazole]

Inhibition at 10 µM, 103%:
Cc1ccc(Cn2ccnc2-c2cc(-c3nnc(C(F)F)o3)ccn2)cc1 [Example 78a]

Inhibition at 10 µM, 100%:
O=C1NN(c2ccc(F)cc2)Cc2ccc(-c3nnc(C(F)F)o3)cc21 [Example 2b, 7-[5-(difluoromethyl)-1,3,4-oxadiazol-2-yl]-3-(4-fluorophenyl)-3,4-dihydrophthalazin-1(2H)-one]
CN1C(=O)c2cc(-c3nnc(C(F)F)o3)ccc2CN1c1ccc(F)cc1 [Example 10b, 7-[5-(difluoromethyl)-1,3,4-oxadiazol-2-yl]-3-(4-fluorophenyl)-2-methyl-3,4-dihydrophthalazin-1(2H)-one]
CN1C(=O)c2cc(-c3nnc(C(F)F)o3)ccc2OC1(C)c1ccc(F)cc1 (stereo not drawn) [Example 7b, 6-[5-(difluoromethyl)-1,3,4-oxadiazol-2-yl]-2-(4-fluorophenyl)-2,3-dimethyl-2,3-dihydro-4H-1,3-benzoxazin-4-one]
Cc1ccc(C2(C)Oc3ccc(-c4nnc(C(F)F)o4)cc3C(=O)N2C)cc1 (stereo not drawn) [Example 22b, 6-[5-(difluoromethyl)-1,3,4-oxadiazol-2-yl]-2,3-dimethyl-2-(4-methylphenyl)-2,3-dihydro-4H-1,3-benzoxazin-4-one]
CC(=O)Nc1ccc(CN(C)N2Cc3ccc(-c4nnc(C(F)F)o4)cc3C2=O)cc1 [Example 52c, N-(4-{[{6-[5-(difluoromethyl)-1,3,4-oxadiazol-2-yl]-1-oxo-1,3-dihydro-2H-isoindol-2-yl}(methyl)amino]methyl}phenyl) acetamide]
CN1C(=O)c2cc(-c3nnc(C(F)F)o3)ccc2OC1(C)c1cccnc1 (stereo not drawn) [Example 43b, 6-[5-(difluoromethyl)-1,3,4-oxadiazol-2-yl]-2,3-dimethyl-2-(pyridin-3-yl)-2,3-dihydro-4H-1,3-benzoxazin-4-one]
CN(Cc1cccc2cnccc12)N1Cc2ccc(-c3nnc(C(F)F)o3)cc2C1=O [Example 47c, 6-[5-(difluoromethyl)-1,3,4-oxadiazol-2-yl]-2-{[(isoquinolin-5-yl)methyl](methyl)amino}-2,3-dihydro-1H-isoindol-1-one]
CN1C(=O)c2cc(-c3nnc(C(F)F)o3)cnc2CC1(C)c1ccc(F)cc1 (stereo not drawn) [Example 25b, 3-[5-(difluoromethyl)-1,3,4-oxadiazol-2-yl]-7-(4-fluorophenyl)-6,7-dimethyl-7,8-dihydro-1,6-naphthyridin-5(6H)-one]
CN(Cc1ccnc(F)c1)N1Cc2ccc(-c3nnc(C(F)F)o3)cc2C1=O [Example 51c, 6-[5-(difluoromethyl)-1,3,4-oxadiazol-2-yl]-2-{[(2-fluoropyridin-4-yl)methyl](methyl)amino}-2,3-dihydro-1H-isoindol-1-one]
